Active and inactive are the calls of the source. The calls are words filed in the database; no cut-off is given here.
Tests used:
[1] = target: T1, Serine/threonine-protein kinase B-raf (Homo sapiens, UniProt P15056); assay: Binding affinity to recombinant human full-length wild type B-Raf (unknown origin) assessed as NEVGVLR accessible protease cleavage peptide level by LC-MS/MS analysis relative to control
Target sequence in this assay (P15056 whole entry): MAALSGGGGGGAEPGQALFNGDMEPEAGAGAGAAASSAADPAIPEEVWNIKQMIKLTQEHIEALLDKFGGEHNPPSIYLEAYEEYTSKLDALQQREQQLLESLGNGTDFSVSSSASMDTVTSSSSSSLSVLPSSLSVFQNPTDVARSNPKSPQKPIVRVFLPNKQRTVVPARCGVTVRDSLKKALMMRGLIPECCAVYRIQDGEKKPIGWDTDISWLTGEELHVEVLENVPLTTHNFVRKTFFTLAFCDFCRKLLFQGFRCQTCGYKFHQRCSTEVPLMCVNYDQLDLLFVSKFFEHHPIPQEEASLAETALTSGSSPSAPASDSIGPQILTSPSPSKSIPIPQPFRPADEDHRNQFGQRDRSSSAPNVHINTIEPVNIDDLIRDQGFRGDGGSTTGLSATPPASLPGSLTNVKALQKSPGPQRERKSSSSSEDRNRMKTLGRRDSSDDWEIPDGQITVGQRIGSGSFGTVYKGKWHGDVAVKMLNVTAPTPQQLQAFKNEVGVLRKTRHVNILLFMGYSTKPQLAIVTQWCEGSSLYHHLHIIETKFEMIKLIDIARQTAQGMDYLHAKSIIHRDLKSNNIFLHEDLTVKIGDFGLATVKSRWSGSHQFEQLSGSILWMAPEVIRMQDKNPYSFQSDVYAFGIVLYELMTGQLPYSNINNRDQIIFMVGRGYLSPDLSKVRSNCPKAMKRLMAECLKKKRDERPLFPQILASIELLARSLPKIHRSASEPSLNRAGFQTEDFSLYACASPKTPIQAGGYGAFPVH

[2] = target: T1, Serine/threonine-protein kinase B-raf; assay: Binding affinity to recombinant human full-length wild type B-Raf (unknown origin) assessed as TPIQAGGYGAFPVH accessible protease cleavage peptide level by LC-MS/MS analysis relative to control; further: test concentration or dose not given here
Target sequence in this assay (P15056 whole entry): as above

[3] = target: T1, Serine/threonine-protein kinase B-raf; assay: Binding affinity to recombinant human full-length wild type B-Raf (unknown origin) assessed as DQIIFMVGR accessible protease cleavage peptide level by LC-MS/MS analysis relative to control
Target sequence in this assay (P15056 whole entry): as above

[4] = target: T1, Serine/threonine-protein kinase B-raf; assay: Binding affinity to recombinant human full-length wild type B-Raf (unknown origin) assessed as 7VVPAR accessible protease cleavage peptide level by LC-MS/MS analysis relative to control; further: test concentration or dose not given here
Target sequence in this assay (P15056 whole entry): as above

[5] = target: T1, Serine/threonine-protein kinase B-raf; assay: Binding affinity to recombinant human full-length wild type B-Raf (unknown origin) assessed as DSSDDWEIPDGQITVGQR accessible protease cleavage peptide level by LC-MS/MS analysis relative to control; further: test concentration or dose not given here
Target sequence in this assay (P15056 whole entry): as above

[6] = target: T1, Serine/threonine-protein kinase B-raf; assay: Binding affinity to recombinant human full-length wild type B-Raf (unknown origin) assessed as GYLSPDLSK accessible protease cleavage peptide level by LC-MS/MS analysis relative to control
Target sequence in this assay (P15056 whole entry): as above

[7] = target: T1, Serine/threonine-protein kinase B-raf; assay: Binding affinity to recombinant human full-length wild type B-Raf (unknown origin) assessed as SASEPSLNR accessible protease cleavage peptide level by LC-MS/MS analysis relative to control
[8] = target: T1, Serine/threonine-protein kinase B-raf; assay: Binding affinity to recombinant human full-length wild type B-Raf (unknown origin) assessed as IGDFGLATVK accessible protease cleavage peptide level by LC-MS/MS analysis relative to control
[9] = target: T1, Serine/threonine-protein kinase B-raf; assay: Binding affinity to recombinant human full-length wild type B-Raf (unknown origin) assessed as GDGGSTTGLSATPPASLPGSLTNVK accessible protease cleavage peptide level by LC-MS/MS analysis relative to control
[10] = target: T1, Serine/threonine-protein kinase B-raf; assay: Binding affinity to recombinant human full-length wild type B-Raf (unknown origin) assessed as QTAQGMDYLHAK accessible protease cleavage peptide level by LC-MS/MS analysis relative to control
[11] = target: T1, Serine/threonine-protein kinase B-raf; assay: Binding affinity to recombinant human full-length wild type B-Raf (unknown origin) assessed as SIIHRDLK accessible protease cleavage peptide level by LC-MS/MS analysis relative to control
[12] = target: T1, Serine/threonine-protein kinase B-raf; assay: Binding affinity to recombinant human full-length wild type B-Raf (unknown origin) assessed as DSLKK accessible protease cleavage peptide level by LC-MS/MS analysis relative to control
[13] = target: T1, Serine/threonine-protein kinase B-raf; assay: Binding affinity to recombinant human full-length wild type B-Raf (unknown origin) assessed as VFLPNK accessible protease cleavage peptide level by LC-MS/MS analysis relative to control
[14] = target: T1, Serine/threonine-protein kinase B-raf; assay: Binding affinity to recombinant human full-length wild type B-Raf (unknown origin) assessed as SNNIFLHEDLTVK accessible protease cleavage peptide level by LC-MS/MS analysis relative to control; further: test concentration or dose not given here
[15] = target: T1, Serine/threonine-protein kinase B-raf; assay: Binding affinity to recombinant human full-length wild type B-Raf (unknown origin) assessed as SPQKPIVR accessible protease cleavage peptide level by LC-MS/MS analysis relative to control
[16] = target: T1, Serine/threonine-protein kinase B-raf; assay: Binding affinity to recombinant human full-length wild type B-Raf (unknown origin) assessed as SIPIPQPFRPADEDHR accessible protease cleavage peptide level by LC-MS/MS analysis relative to control; further: test concentration or dose not given here
[17] = target: T1, Serine/threonine-protein kinase B-raf; assay: Binding affinity to recombinant human full-length wild type B-Raf (unknown origin) assessed as IGSGSFGTVYK accessible protease cleavage peptide level by LC-MS/MS analysis relative to control
[18] = target: T1, Serine/threonine-protein kinase B-raf; assay: Binding affinity to recombinant human full-length wild type B-Raf (unknown origin) assessed as LIDIAR accessible protease cleavage peptide level by LC-MS/MS analysis relative to control; further: test concentration or dose not given here
[19] = target: T1, Serine/threonine-protein kinase B-raf; assay: Binding affinity to recombinant human full-length wild type B-Raf (unknown origin) assessed as WHGDVAVK accessible protease cleavage peptide level by LC-MS/MS analysis relative to control
A-375 = assay: Inhibition of cell proliferation in human A375 cells expressing B-Raf V600E mutant after 96 hrs by MTT assay; format: functional, cell-based
[20] = target: T1, Serine/threonine-protein kinase B-raf; assay: Activation of tumorigenic wild type B-Raf in human IPC-298 cells with Ras mutation assessed as phosphorylation of ERK; format: cell-based
Target sequence in this assay (P15056 2-766 limits assumed, change not shown): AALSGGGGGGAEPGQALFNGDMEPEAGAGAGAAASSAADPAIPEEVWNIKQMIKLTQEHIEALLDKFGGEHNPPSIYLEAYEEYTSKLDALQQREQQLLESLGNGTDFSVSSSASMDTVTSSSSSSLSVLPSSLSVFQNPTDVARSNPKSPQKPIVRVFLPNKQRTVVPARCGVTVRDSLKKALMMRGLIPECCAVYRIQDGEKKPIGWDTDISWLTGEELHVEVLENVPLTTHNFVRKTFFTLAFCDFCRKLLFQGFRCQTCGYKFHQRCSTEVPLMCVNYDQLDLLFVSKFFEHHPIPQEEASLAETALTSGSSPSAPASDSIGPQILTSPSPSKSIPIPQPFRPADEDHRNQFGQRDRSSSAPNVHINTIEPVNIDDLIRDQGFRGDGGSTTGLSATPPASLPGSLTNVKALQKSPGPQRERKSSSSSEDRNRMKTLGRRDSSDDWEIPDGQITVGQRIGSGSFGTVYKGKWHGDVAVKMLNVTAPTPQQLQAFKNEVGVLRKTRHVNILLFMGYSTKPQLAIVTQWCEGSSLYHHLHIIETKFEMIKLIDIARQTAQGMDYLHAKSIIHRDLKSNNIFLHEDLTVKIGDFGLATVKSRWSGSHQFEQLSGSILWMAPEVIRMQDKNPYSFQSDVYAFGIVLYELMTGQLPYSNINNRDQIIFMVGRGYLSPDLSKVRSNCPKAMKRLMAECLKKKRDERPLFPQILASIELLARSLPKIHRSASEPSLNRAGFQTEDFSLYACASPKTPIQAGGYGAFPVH

SW-620 = assay: Inhibition of cell proliferation in human SW620 cells expressing wild type B-Raf after 96 hrs by MTT assay; format: functional, cell-based
[21] = target: T1, Serine/threonine-protein kinase B-raf; assay: Binding affinity to wild type B-Raf (unknown origin)
[22] = target: T1, Serine/threonine-protein kinase B-raf; assay: Inhibition of phosphorylation of MEK level in human SW620 cells expressing wild type B-Raf at 3 microM after 48 hrs by immunoblotting analysis; format: cell-based; settings: SW-620
[23] = target: T2, Serine/threonine-protein kinase B-raf (Homo sapiens, UniProt P15056, V600E); assay: Binding affinity to B-Raf V600E mutant (unknown origin)
T2 sequence (P15056 2-766 V600E limits assumed): as the sequence (P15056 2-766 limits assumed, change not shown) above, with V599E counted along it

[24] = target: T2, Serine/threonine-protein kinase B-raf; assay: Inhibition of B-Raf V600E mutant in human A375 cells assessed as phosphorylation of ERK; format: cell-based, A-375
[25] = target: T1, Serine/threonine-protein kinase B-raf; assay: Inhibition of phosphorylation of ERK level in human SW620 cells expressing wild type B-Raf at 3 microM after 48 hrs by immunoblotting analysis; format: cell-based; settings: SW-620
[26] = target: T2, Serine/threonine-protein kinase B-raf; assay: Inhibition of B-Raf V600E mutant (unknown origin) assessed as inhibition of phosphorylation of peptide substrate

| Structure (SMILES) | Ratio [1] | Ratio [2] | Ratio [3] | Ratio [4] | Ratio [5] | Ratio [6] | Ratio [7] | Ratio [8] | Ratio [9] | Ratio [10] | Ratio [11] | Ratio [12] | Ratio [13] | Ratio [14] | Ratio [15] | Ratio [16] | Ratio [17] | Ratio [18] | Ratio [19] | inhibition (A-375) | further results |
| --- | --- | --- | --- | --- | --- | --- | --- | --- | --- | --- | --- | --- | --- | --- | --- | --- | --- | --- | --- | --- | --- |
| Nc1ncnc2c1ncn2[C@@H]1O[C@H](COP(=O)(O)OP(=O)(O)NP(=O)(O)O)[C@@H](O)[C@H]1O | 0.46 | 1.14 | 0.62 | 0.89 | 0.71 | 0.82 | 0.95 | 0.79 | 0.98 | 0.72 | 0.37 | 0.76 | 0.91 | 1.03 | 0.83 | 1 | 0.83 | 0.55 | 0.67 | – | – |
| CCN(C)S(=O)(=O)Nc1ccc(F)c(C(=O)c2c[nH]c3ncc(Cl)cc23)c1F | 0.37 | 1.42 | 0.83 | 1.26 | 0.56 | 0.91 | 1.8 | 0.53 | 1.55 | 0.9 | 0.47 | 1.71 | 1.01 | 0.21 | 1.11 | 1.45 | 0.62 | 0.5 | 0.5 | Active | EC50 [20]: > 10 µM; inhibition (SW-620): inactive; Kd [21]: 400 nM; inhibition [22]: Active; Kd [23]: 550 nM; IC50 [24]: < 1000 nM; inhibition [25]: Active; IC50 [26]: < 100 nM |
| CCN(C)S(=O)(=O)Nc1ccc(F)c(C(=O)c2c[nH]c3ncc(-c4ccc(Cl)cc4)cc23)c1F | 0.12 | 1.22 | 0.48 | 0.96 | 0.37 | 0.41 | 1.53 | 0.3 | 1.16 | 0.36 | 0.3 | 0.93 | 0.73 | 0.11 | 0.94 | 1.27 | 0.42 | 0.23 | 0.36 | Active | EC50 [20]: > 10 µM; inhibition (SW-620): inactive; Kd [21]: 690 nM; inhibition [22]: Active; Kd [23]: 1410 nM; IC50 [24]: < 1000 nM; inhibition [25]: Active; IC50 [26]: < 100 nM |
| Nc1ncnc2c1ncn2[C@@H]1O[C@H](COP(=O)(O)OP(=O)(O)O)[C@@H](O)[C@H]1O | 1.13 | 1.42 | 1.36 | 1.21 | 0.83 | 1.27 | 1.04 | 1.3 | 1.28 | 1.22 | 0.32 | 1.34 | 1.24 | 1.9 | 1.14 | 1.34 | 1.18 | 0.86 | 0.99 | – | – |
| Nc1ncnc2c1ncn2[C@@H]1O[C@H](COP(=O)(O)OP(=O)(O)OP(=O)(O)O)[C@@H](O)[C@H]1O | 0.34 | 0.95 | 0.57 | 0.97 | 0.62 | 0.76 | 0.94 | 0.72 | 0.68 | 0.81 | 1.16 | 0.76 | 0.78 | 0.77 | 0.64 | 0.75 | 0.62 | 0.54 | 0.75 | – | – |

Reference: ChEMBL document CHEMBL3414549, “Structural investigation of B-Raf paradox breaker and inducer inhibitors” (J Med Chem, 2015)
